Results published in US8501786B2, “Hydroxymethyl pyrrolidines as beta 3 adrenergic receptor agonists” (Merck Sharp & Dohme Corp., priority 2009, dated 2013).

Each molecule was assayed against T1, human β3 adrenergic receptor (Homo sapiens, UniProt P13945) (assay: Functional assay: cAMP production (LANCE TR-FRET) in CHO cells stably transfected with cloned β3 adrenergic receptor). Details: Table 2; cAMP production, CHO cells expressing human β3 AR; read-out: Human β3 functional.
T1 construct: stably transfected with the cloned β-adrenergic receptor (β1, β2 or β3); expressed in transfected cells; host or cells: Chinese hamster ovary (CHO) cells, stably transfected
Assay type: cell-based

T1 sequence (P13945 whole entry): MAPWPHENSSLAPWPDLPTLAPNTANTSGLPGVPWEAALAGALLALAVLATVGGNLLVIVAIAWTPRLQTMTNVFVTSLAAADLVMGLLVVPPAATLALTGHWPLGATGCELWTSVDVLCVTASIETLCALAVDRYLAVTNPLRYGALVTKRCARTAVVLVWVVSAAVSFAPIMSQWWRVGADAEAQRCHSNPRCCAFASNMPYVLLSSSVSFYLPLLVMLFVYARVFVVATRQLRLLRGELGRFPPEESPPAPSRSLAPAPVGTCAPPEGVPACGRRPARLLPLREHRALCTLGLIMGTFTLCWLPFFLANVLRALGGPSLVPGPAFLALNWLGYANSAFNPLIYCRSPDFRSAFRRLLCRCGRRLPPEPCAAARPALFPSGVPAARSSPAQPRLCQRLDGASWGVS

| EC50 | SMILES |
| --- | --- |
| 11 to 100 nM | O=C(Cn1nc(Cl)ccc1=O)Nc1ccc(CC2CC[C@H]([C@H](O)c3cccnc3)N2)cc1 (stereo partly drawn) [Example 66] |
| 1 to 10 nM | Cc1sc2ncn(CC(=O)Nc3ccc(CC4CC[C@H]([C@H](O)c5cccnc5)N4)cc3)c(=O)c2c1C (stereo partly drawn) [Example 21] |
| 1 to 10 nM | O=C(Nc1ccc(CC2CC[C@H]([C@H](O)c3cccnc3)N2)cc1)[C@@H]1CCCN1c1nccs1 (stereo partly drawn) [Example 30] |
| 11 to 100 nM | O=C(Cc1cncnc1O)Nc1ccc(CC2CC[C@H]([C@H](O)c3cccnc3)N2)cc1 (stereo partly drawn) [Example 47] |
| 1 to 10 nM | O=C(Cn1c(=O)ncc2ccccc21)Nc1ccc(CC2CC[C@H]([C@H](O)c3cccnc3)N2)cc1 (stereo partly drawn) [Example 13] |
| 1 to 10 nM | O=C(Cn1ccccc1=O)Nc1ccc(CC2CC[C@H]([C@H](O)c3cccnc3)N2)cc1 (stereo partly drawn) [Example 40] |
| 11 to 100 nM | O=C(Cn1nccn1)Nc1ccc(CC2CC[C@H]([C@H](O)c3cccnc3)N2)cc1 (stereo partly drawn) [Example 39] |
| 11 to 100 nM | O=C(Cc1cnccn1)Nc1ccc(CC2CC[C@H]([C@H](O)c3cccnc3)N2)cc1 (stereo partly drawn) [Example 41] |
| 11 to 100 nM | O=C(Cn1cc2ccccc2n1)Nc1ccc(CC2CC[C@H]([C@H](O)c3cccnc3)N2)cc1 (stereo partly drawn) [Example 6] |
| 1 to 10 nM | O=C(Cn1cnc2ccccc2c1=O)Nc1ccc(CC2CC[C@H]([C@H](O)c3cccnc3)N2)cc1 (single isomer, unassigned) [Example 64] |
| 1 to 10 nM | Cn1ncc2ncn(CC(=O)Nc3ccc(CC4CC[C@H]([C@H](O)c5cccnc5)N4)cc3)c(=O)c21 (stereo partly drawn) [Example 76] |
| 1 to 10 nM | O=C(Cn1cnc2ccsc2c1=O)Nc1ccc(CC2CC[C@H]([C@H](O)c3cccnc3)N2)cc1 (stereo partly drawn) [Example 75] |
| 101 to 1000 nM | O=C(Nc1ccc(CC2CC[C@H]([C@H](O)c3cccnc3)N2)cc1)c1ccccc1C1CCCCC1 (stereo partly drawn) [Example 36] |
| 101 to 1000 nM | O=C(CC1NC(=O)NC1=O)Nc1ccc(CC2CC[C@H]([C@H](O)c3cccnc3)N2)cc1 (stereo partly drawn) [Example 71] |

Same assay, conditions: Table 3; cAMP production, CHO cells expressing human β3 AR; read-out: Human β3 functional

| EC50 | SMILES |
| --- | --- |
| 11 to 100 nM | CC(C(=O)Nc1ccc(CC2CC[C@H]([C@H](O)c3cccnc3)N2)cc1)n1cnnn1 (single isomer, unassigned) [Example 182] |
| 11 to 100 nM | O=C(Nc1ccc(CC2CC[C@H]([C@H](O)c3cccnc3)N2)cc1)C1CCc2sc(Cl)nc21 (single isomer, unassigned) [Example 187] |
| 11 to 100 nM | Cc1nnc2c(C(C)C(=O)Nc3ccc(CC4CC[C@H]([C@H](O)c5cccnc5)N4)cc3)cccn12 (single isomer, unassigned) [Example 216] |
| 1 to 10 nM | O=C(Nc1ccc(CC2CC[C@H]([C@H](O)c3cccnc3)N2)cc1)C1CCc2sc(F)nc21 (single isomer, unassigned) [Example 157] |
| 11 to 100 nM | Cc1cn(C(C)C(=O)Nc2ccc(CC3CC[C@H]([C@H](O)c4cccnc4)N3)cc2)nn1 (single isomer, unassigned) [Example 211] |
| 11 to 100 nM | Cc1noc2c1CCC2C(=O)Nc1ccc(CC2CC[C@H]([C@H](O)c3cccnc3)N2)cc1 (single isomer, unassigned) [Example 169] |
| 1 to 10 nM | CC(C(=O)Nc1ccc(CC2CC[C@H]([C@H](O)c3cccnc3)N2)cc1)c1nccs1 (single isomer, unassigned) [Example 174] |
| 11 to 100 nM | O=C(Nc1ccc(CC2CC[C@H]([C@H](O)c3cccnc3)N2)cc1)C1CCc2nc3ccccc3c(=O)n21 (single isomer, unassigned) [Example 192] |
| 101 to 1000 nM | COC(=O)c1cnnn1C(C)C(=O)Nc1ccc(CC2CC[C@H]([C@H](O)c3cccnc3)N2)cc1 (single isomer, unassigned) [Example 209] |
| 11 to 100 nM | CC(C(=O)Nc1ccc(CC2CC[C@H]([C@H](O)c3cccnc3)N2)cc1)c1nnn(C)n1 (single isomer, unassigned) [Example 181] |
| 1 to 10 nM | COCCC(C(=O)Nc1ccc(CC2CC[C@H]([C@H](O)c3cccnc3)N2)cc1)n1cccn1 (single isomer, unassigned) [Example 221] |
| 11 to 100 nM | Cc1cn(C(C)C(=O)Nc2ccc(CC3CC[C@H]([C@H](O)c4cccnc4)N3)cc2)nn1 (single isomer, unassigned) [Example 210] |
| 11 to 100 nM | CC(C(=O)Nc1ccc(CC2CC[C@H]([C@H](O)c3cccnc3)N2)cc1)c1ccn[nH]1 (single isomer, unassigned) [Example 179] |
| 101 to 1000 nM | CC(C(=O)Nc1ccc(CC2CC[C@H]([C@H](O)c3cccnc3)N2)cc1)c1ccn(C)n1 (single isomer, unassigned) [Example 215] |
| 1 to 10 nM | CCC(C(=O)Nc1ccc(CC2CC[C@H]([C@H](O)c3cccnc3)N2)cc1)n1cccn1 (single isomer, unassigned) [Example 185] |

Continued, molecule first:

| SMILES | EC50 |
| --- | --- |
| CC(C)c1nc2c(s1)CCC2C(=O)Nc1ccc(CC2CC[C@H]([C@H](O)c3cccnc3)N2)cc1 (single isomer, unassigned) [Example 124] | 11 to 100 nM |
| Cc1nc2c(s1)CCC2C(=O)Nc1ccc(CC2CC[C@H]([C@H](O)c3cccnc3)N2)cc1 (single isomer, unassigned) [Example 115] | 1 to 10 nM |
| CC(C(=O)Nc1ccc(CC2CC[C@H]([C@H](O)c3cccnc3)N2)cc1)c1cnccn1 (single isomer, unassigned) [Example 145] | 1 to 10 nM |
| CC(C(=O)Nc1ccc(CC2CC[C@H]([C@H](O)c3cccnc3)N2)cc1)n1nccn1 (single isomer, unassigned) [Example 143] | 1 to 10 nM |
| CC(C(=O)Nc1ccc(CC2CC[C@H]([C@H](O)c3cccnc3)N2)cc1)n1cccn1 (single isomer, unassigned) [Example 98] | 11 to 100 nM |
| COCc1nc2c(s1)CCC2C(=O)Nc1ccc(CC2CC[C@H]([C@H](O)c3cccnc3)N2)cc1 (single isomer, unassigned) [Example 126] | 101 to 1000 nM |
| Cc1nnc(C(C)C(=O)Nc2ccc(CC3CC[C@H]([C@H](O)c4cccnc4)N3)cc2)[nH]1 (single isomer, unassigned) [Example 153] | 11 to 100 nM |
| O=C(Nc1ccc(CC2CC[C@H]([C@H](O)c3cccnc3)N2)cc1)C1CCc2cccnc21 (single isomer, unassigned) [Example 128] | 1 to 10 nM |
| CC(C)c1nc2c(s1)CCC2C(=O)Nc1ccc(CC2CC[C@H]([C@H](O)c3cccnc3)N2)cc1 (single isomer, unassigned) [Example 123] | 101 to 1000 nM |
| CCCC(C(=O)Nc1ccc(CC2CC[C@H]([C@H](O)c3cccnc3)N2)cc1)c1csc(N)n1 (single isomer, unassigned) [Example 108] | 1 to 10 nM |
| Cc1nc(C(C)C(=O)Nc2ccc(CC3CC[C@H]([C@H](O)c4cccnc4)N3)cc2)c(C)s1 (single isomer, unassigned) [Example 103] | 101 to 1000 nM |
| Cc1nc(C(C)C(=O)Nc2ccc(CC3CC[C@H]([C@H](O)c4cccnc4)N3)cc2)c(C)s1 (single isomer, unassigned) [Example 104] | 1000 to 3000 nM |
| CC(C(=O)Nc1ccc(CC2CC[C@H]([C@H](O)c3cccnc3)N2)cc1)c1csc(N)n1 (single isomer, unassigned) [Example 106] | 1 to 10 nM |
| CC(C(=O)Nc1ccc(CC2CC[C@H]([C@H](O)c3cccnc3)N2)cc1)n1cncn1 (single isomer, unassigned) [Example 141] | 1 to 10 nM |
| O=C(Nc1ccc(CC2CC[C@H]([C@H](O)c3cccnc3)N2)cc1)C1CCc2cccnc21 (single isomer, unassigned) [Example 127] | 1 to 10 nM |
| Cc1nc(C(C)C(=O)Nc2ccc(CC3CC[C@H]([C@H](O)c4cccnc4)N3)cc2)cs1 (single isomer, unassigned) [Example 101] | 1 to 10 nM |
| Cc1nc2c(s1)CCC2C(=O)Nc1ccc(CC2CC[C@H]([C@H](O)c3cccnc3)N2)cc1 (single isomer, unassigned) [Example 117] | 11 to 100 nM |
| Cc1[nH]nc2c1CCC2C(=O)Nc1ccc(CC2CC[C@H]([C@H](O)c3cccnc3)N2)cc1 (single isomer, unassigned) [Example 154] | 1 to 10 nM |
| Cc1ccn(C(C)C(=O)Nc2ccc(CC3CC[C@H]([C@H](O)c4cccnc4)N3)cc2)n1 (single isomer, unassigned) [Example 100] | 1000 to 3000 nM |
| COC(=O)c1cn(C(C)C(=O)Nc2ccc(CC3CC[C@H]([C@H](O)c4cccnc4)N3)cc2)nn1 (single isomer, unassigned) [Example 151] | 11 to 100 nM |

Same assay, conditions: Table 4; cAMP production, CHO cells expressing human β3 AR; read-out: Human β3 functional

| EC50 | SMILES |
| --- | --- |
| 101 to 1000 nM | O=C(N1CCc2ccc(S(=O)(=O)Nc3ccc(CC4CC[C@H]([C@H](O)c5cccnc5)N4)cc3)cc2C1)C(F)(F)F (stereo partly drawn) [Example 233] |
| 101 to 1000 nM | O=S(=O)(Cc1ccccn1)Nc1ccc(CC2CC[C@H]([C@H](O)c3cccnc3)N2)cc1 (stereo partly drawn) [Example 226] |
| 11 to 100 nM | O=S(=O)(Nc1ccc(CC2CC[C@H]([C@H](O)c3cccnc3)N2)cc1)c1ccc(I)cc1 (stereo partly drawn) [Example 224] |
| 101 to 1000 nM | O=S(=O)(Nc1ccc(CC2CC[C@H]([C@H](O)c3cccnc3)N2)cc1)c1ccc2ncsc2c1 (stereo partly drawn) [Example 231] |
| 101 to 1000 nM | N#Cc1ccc(S(=O)(=O)Nc2ccc(CC3CC[C@H]([C@H](O)c4cccnc4)N3)cc2)cc1 (stereo partly drawn) [Example 237] |

Same assay, conditions: Table 6; human β3 functional activity given as ranges; read-out: Human β3 functional

| EC50 | SMILES |
| --- | --- |
| 11 to 100 nM | CC(C(=O)Nc1ccc(C[C@@H]2CC[C@H]([C@H](O)c3cccnc3)N2)cc1)N(C)C(=O)c1ccccc1F (stereo partly drawn) [Example 248] |
| 1 to 10 nM | CC(NC(=O)c1cscn1)C(=O)Nc1ccc(C[C@@H]2CC[C@H]([C@H](O)c3cccnc3)N2)cc1 (stereo partly drawn) [Example 251] |

Same assay, conditions: cAMP production, CHO cells expressing human β3 AR; read-out: human Beta-3 agonist functional activity

| EC50 | SMILES |
| --- | --- |
| < 100 nM | C[C@H](NS(=O)(=O)c1ccc(F)cc1)C(=O)Nc1ccc(C[C@@H]2CC[C@H]([C@H](O)c3cccnc3)N2)cc1 [Example 246, (2S)-2-{[(4-Fluorophenyl)sulfonyl]amino}-N-[4-({(2S,5R)-5-[(R)-hydroxy(pyridin-3-yl)methyl]pyrrolidin-2-yl}methyl)phenyl]propanamide] |
